What was measured:
Assay in all cases: combination Emax (second highest fraction inhibited in the dose matrix, 72 h); higher = more inhibition; extreme values may be limits of the assay
[1] = test system: PC-3_[JPC-3] (Lung Adenocarcinoma)
Procedure, shortened: (§1)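 Cell lines in DMEM/F12 or RPMI with 10% FBS were plated in 1536-well plates, held 24 hours at 37°C, 5% CO2, then given two-drug dose matrices for 72 hours (DMSO typically 0.2%). Viability was read by CellTiter-Glo 2.0 luminescence and scaled as inhibition from 0 (vehicle wells) to 1 (blank wells). Combination Emax is the second-highest inhibition in the matrix; Bliss excess is observed combination effect minus expected EA + EB − EA·EB, EA and EB being single-agent effects.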

[2] = test system: PSN1 (Pancreatic Carcinoma)
Procedure, shortened: as §1

[3] = test system: NCI-H2342 (Lung Adenocarcinoma)
Procedure, shortened: as §1

LN-229 (Glioblastoma) = test system: LN-229 (Glioblastoma)
Procedure, shortened: as §1

[4] = test system: NCI-H446 (Small Cell Lung Carcinoma)
Procedure, shortened: as §1

[5] = test system: RCM-1 (Colorectal Carcinoma)
Procedure, shortened: as §1

[6] = test system: L-1236 (Hodgkin's Lymphoma)
Procedure, shortened: as §1

SF268 (Low Grade Glioma) = test system: SF268 (Low Grade Glioma)
Procedure, shortened: as §1

[7] = test system: OPM-2 (Plasma Cell Myeloma)
Procedure, shortened: as §1

[8] = test system: RERF-GC-1B (Gastric Carcinoma)
Procedure, shortened: as §1

[9] = test system: LB996-RCC (Kidney Carcinoma)
Procedure, shortened: as §1

[10] = test system: VAL (B-Cell Non-Hodgkin's Lymphoma)
Procedure, shortened: as §1

[11] = test system: LXF-289 (Lung Adenocarcinoma)
Procedure, shortened: as §1

[12] = test system: FADU (Head and Neck Carcinoma)
Procedure, shortened: as §1

[13] = test system: KE-37 (T-Lymphoblastic Leukemia)
Procedure, shortened: as §1

[14] = test system: HCT-15 (Colorectal Carcinoma)
Procedure, shortened: as §1

[15] = test system: SK-PN-DW (Other Solid Carcinomas)
Procedure, shortened: as §1

[16] = test system: GP5d (Colorectal Carcinoma)
Procedure, shortened: as §1

[17] = test system: HEC-1 (Endometrial Carcinoma)
Procedure, shortened: as §1

[18] = test system: HSC-39 (Gastric Carcinoma)
Procedure, shortened: as §1

SMILES	combination Emax [1]	combination Emax [2]	combination Emax [3]	combination Emax (LN-229 (Glioblastoma))	combination Emax [4]	combination Emax [5]	combination Emax [6]	combination Emax (SF268 (Low Grade Glioma))	combination Emax [7]	combination Emax [8]	combination Emax [9]	combination Emax [10]	combination Emax [11]	combination Emax [12]	combination Emax [13]	combination Emax [14]	combination Emax [15]	combination Emax [16]	combination Emax [17]	combination Emax [18]
COc1nnc2ccc(N3CCC(c4ccc(OCCN5CCN(C)C(=O)[C@H]5C)cc4)CC3)nn12 [AZD5153] + CC1(C)CCC(CN2CCN(c3ccc(C(=O)NS(=O)(=O)c4ccc(NCC5CCOCC5)c([N+](=O)[O-])c4)c(Oc4cnc5[nH]ccc5c4)c3)CC2)=C(c2ccc(Cl)cc2)C1 [Venetoclax] (first compound max 1 µM, 7x7, partner max 1 µM)	0.364	0.334	0.315	0.309	0.858	0.557	0.997	0.462	1	0.702	0.473	0.996	0.646	0.521	0.7	0.724	0.482	0.682	0.602	0.676
COc1nnc2ccc(N3CCC(c4ccc(OCCN5CCN(C)C(=O)[C@H]5C)cc4)CC3)nn12 [AZD5153] + CCN(CCO)CCCOc1ccc2c(Nc3cc(CC(=O)Nc4cccc(F)c4)[nH]n3)ncnc2c1 [AZD2811] (first compound max 1 µM, 7x7, partner max 1 µM)	0.425	0.566	0.433	0.411	0.962	0.612	0.988	0.609	1	0.685	0.534	0.727	0.82	0.533	1	0.807	0.726	0.728	0.607	0.952
COc1nnc2ccc(N3CCC(c4ccc(OCCN5CCN(C)C(=O)[C@H]5C)cc4)CC3)nn12 [AZD5153] + C[C@@H]1COCCN1C2=NC(=NC(=C2)C3(CC3)[S@](=N)(=O)C)C4=C5C=CNC5=NC=C4 [AZD6738] (first compound max 1 µM, 7x7, partner max 10 µM)	0.5	0.586	0.673	0.575	0.951	0.674	0.998	0.773	1	0.796	0.731	0.835	0.862	0.642	0.978	0.858	0.868	0.855	0.884	1
COc1nnc2ccc(N3CCC(c4ccc(OCCN5CCN(C)C(=O)[C@H]5C)cc4)CC3)nn12 [AZD5153] + Cc1c2c(nn1C)CSCc1cc(n(C)n1)CSc1cc(c3ccccc3c1)OCCCc1c(C(=O)O)n(C)c3c-2c(Cl)ccc13 [AZD5991] (first compound max 1 µM, 7x7, partner max 1 µM)	0.39	0.506	0.563	0.629	0.998	0.619	1	0.569	1	0.985	0.491	0.854	0.903	0.975	0.997	0.75	0.985	0.961	0.942	1
COc1nnc2ccc(N3CCC(c4ccc(OCCN5CCN(C)C(=O)[C@H]5C)cc4)CC3)nn12 [AZD5153] + Cn1cnc2c(F)c(Nc3ccc(Br)cc3Cl)c(C(=O)NOCCO)cc21 [Selumetinib] (first compound max 1 µM, 7x7, partner max 10 µM)	0.525	0.818	0.347	0.511	0.91	0.817	1	0.518	1	0.753	0.482	0.738	0.646	0.629	0.654	0.819	0.559	0.887	0.595	0.76
Cc1c2c(nn1C)CSCc1cc(n(C)n1)CSc1cc(c3ccccc3c1)OCCCc1c(C(=O)O)n(C)c3c-2c(Cl)ccc13 [AZD5991] + C1CN(CCC1(C(=O)N[C@@H](CCO)C2=CC=C(C=C2)Cl)N)C3=NC=NC4=C3C=CN4 [Capivasertib] (first compound max 1 µM, 7x7, partner max 3 µM)	0.203	0.241	0.298	0.42	0.838	0.307	0.42	0.216	1	0.989	0.433	0.811	0.369	1	1	0.209	0.95	0.733	0.0757	1
